The values that follow come from patent publication US8735414B2 (priority 2009, dated 2014).

In series [1] the test system is bicistronic HCV replicon (replicon RNA, GenBank Accession No. AJ242654). As to the kind of experiment: HCV Replicon Assay. Format: cell-based. As to conditions: Hepatitis C virus, 72 h, read-out: Replicon IC50. On the technique in general: A replicon is a self-replicating genome or part of one, used to study replication in cells.

The structures appear in SMILES notation.

On to `N#Cc1c(-c2ncc(S(=O)(=O)NC(CF)CF)cn2)n(C2CCCC2)c2cc(C3CC3)ccc12` [compound 173, 2-(3-cyano-1-cyclopentyl-6-cyclopropyl-1H-indol-2-yl)-N-(1,3-difluoropropan-2-yl)pyrimidine-5-sulfonamide], for which the melting point (in general, the temperature of the solid-liquid transition) is 215 to 219 °C. For the same compound, the IC50 (usually the concentration at which inhibition is half-maximal) in series [1] is under 500 nM.

The compound `CC(C)NS(=O)(=O)c1cnc(-c2c(C#N)c3cc(F)ccc3n2CC2CC2)nc1` [compound 303, 2-[3-cyano-1-(cyclopropylmethyl)-5-fluoro-1H-indol-2-yl]-N-(propan-2-yl)pyrimidine-5-sulfonamide] showed a melting point of 215 to 220 °C. Further, the IC50 in series [1] was under 500 nM.

The compound `Cc1cc2c(cc1Br)c(C#N)c(-c1ccc(S(=O)(=O)N[C@H](C)C(F)(F)F)cn1)n2C1CCCC1` [compound 692, 6-(5-bromo-3-cyano-1-cyclopentyl-6-methyl-1H-indol-2-yl)-N-[(2R)-1,1,1-trifluoropropan-2-yl]pyridine-3-sulfonamide] yielded a melting point of 226.5 to 227 °C. Also, the IC50 in series [1] is under 500 nM.

Regarding `Cc1ccc2c(C#N)c(-c3ncc(S(=O)(=O)NC(CF)CF)cn3)n(CC3CC3)c2c1` [compound 133, 2-[3-cyano-1-(cyclopropylmethyl)-6-methyl-1H-indol-2-yl]-N-(1,3-difluoropropan-2-yl)pyrimidine-5-sulfonamide], the melting point lay in the range of 261 to 262 °C. Further, in series [1], the IC50 is under 500 nM.

Turning to `CCc1cc2c(cc1F)c(C(=O)O)c(-c1ccc(NS(=O)(=O)C(C)(C)C)cn1)n2C1CCCCC1` [compound 998, 2-{5-[(tert-butylsulfonyl)amino]pyridin-2-yl}-1-cyclohexyl-6-ethyl-5-fluoro-1H-indole-3-carboxylic acid], the melting point lay in the range of 224 to 226 °C. The IC50 in series [1] fell in the range of 500 to 2000 nM.

Take `CC(C)NS(=O)(=O)c1ccc(-c2c(C#N)c3ccc(OC4CCC4)cc3n2C2CCC2)cn1` [compound 4, 5-[3-cyano-1-cyclobutyl-6-(cyclobutyloxy)-1H-indol-2-yl]-N-(propan-2-yl)pyridine-2-sulfonamide]: the melting point is 178 to 180 °C. In series [1], the IC50 was in the range of 2000 to 5000 nM.

`N#Cc1c(-c2ccc(S(=O)(=O)NC3(C(F)(F)F)CC3)cn2)n(-c2ncccn2)c2cc(OC(F)F)ccc12` [compound 690, 6-[3-cyano-6-(difluoromethoxy)-1-(pyrimidin-2-yl)-1H-indol-2-yl]-N-[1-(trifluoromethyl)cyclopropyl]pyridine-3-sulfonamide] yielded a melting point of 170 to 174 °C. Also, the IC50 in series [1] lay within 500 to 2000 nM.

In turn, `Cc1cc2c(cc1F)c(C#N)c(-c1ccc(S(=O)(=O)N[C@@H](C)C(F)(F)F)cn1)n2-c1cnn(C)c1` [compound 1016, 6-[3-cyano-5-fluoro-6-methyl-1-(1-methyl-1H-pyrazol-4-yl)-1H-indol-2-yl]-N-[(2S)-1,1,1-trifluoropropan-2-yl]pyridine-3-sulfonamide] yielded a melting point of 233.7 to 239.3 °C. Further, the IC50 in series [1] was under 500 nM.

Regarding `CCc1cc2c(cc1F)c(C#N)c(-c1ccc(S(=O)(=O)NC(C)(C)C(F)(F)F)cn1)n2C1CCCC1` [compound 672, 6-(3-cyano-1-cyclopentyl-6-ethyl-5-fluoro-1H-indol-2-yl)-N-(1,1,1-trifluoro-2-methylpropan-2-yl)pyridine-3-sulfonamide], the melting point lay within 142 to 143 °C. Moreover, in series [1], the IC50 is under 500 nM.

The compound `CCc1cc2c(cc1F)c(C(N)=O)c(-c1ccc(S(=O)(=O)NC(C)(C)C)cn1)n2-c1ccccc1` [compound 1109, 2-[5-(tert-butylsulfamoyl)pyridin-2-yl]-6-ethyl-5-fluoro-1-phenyl-1H-indole-3-carboxamide] yielded a melting point of 237.9 to 238.9 °C. The IC50 in series [1] is under 500 nM.

With `C[C@H](NS(=O)(=O)c1ccc(-c2c(C#N)c3cc(F)ccc3n2C2CCCC2)nc1)C1CC1` [compound 143, 6-(3-cyano-1-cyclopentyl-5-fluoro-1H-indol-2-yl)-N-[(1S)-1-cyclopropylethyl]pyridine-3-sulfonamide], the melting point was 159 to 160 °C. In series [1], the IC50 is under 500 nM.
